Test results published in patent US20230022157A1 (Achillion Pharmaceuticals, Inc., priority 2018, published 2023).

Biological target: T1, Human Factor D (Homo sapiens, UniProt P00746)
T1 construct: purified from human serum; purchased Complement Technology, Inc; host or cells: human serum (natural protein, not recombinant)
Test: Human Factor D Assay
Format: biochemical
Details: Human Factor D 80 nM, substrate Z-L-Lys-SBzl; Table 2; read-out: IC50 (Stars)
Procedure, shortened: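 Serum-purified human factor D (80 nM final) preincubated 5 min at room temperature with test compound in 50 mM Tris, 1M NaCl, pH 7.5. Z-L-Lys-SBzl substrate and DTNB then added, each at 100 μM final. IC50 from nonlinear regression of reaction rate against compound concentration.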

T1 sequence (P00746 26-253): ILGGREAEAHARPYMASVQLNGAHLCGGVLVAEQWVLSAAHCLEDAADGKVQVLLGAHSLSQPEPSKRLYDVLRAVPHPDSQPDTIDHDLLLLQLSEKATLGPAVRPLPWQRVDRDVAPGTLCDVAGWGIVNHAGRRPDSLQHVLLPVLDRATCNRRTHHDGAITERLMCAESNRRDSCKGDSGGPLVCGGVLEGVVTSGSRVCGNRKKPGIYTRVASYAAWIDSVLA

SMILES	IC50
CC(=O)c1nn(CC(=O)N2[C@H]3CC[C@H](C3)[C@H]2C(=O)Nc2nc(Br)ccc2C)c2c(C)cc(-c3cnc(C)nc3)cc12 [Compound 99, (1S,3S,4R)-2-(2-(3-Acetyl-7-methyl-5-(2-methylpyrimidin-5-yl)-1H-indazol-1-yl)acetyl)-N-(6-bromo-3-methylpyridin-2-yl)-2-azabicyclo[2.2.1]heptane-3-carboxamide]	< 1000 nM
CC(=O)c1nn(CC(=O)N2[C@H]3CC[C@H](C3)[C@H]2C(=O)Nc2nc(Br)c(F)cc2C)c2c(C3CC3)cc(-c3cnc(C)nc3)cc12 [Compound 122, (1S,3S,4R)-2-(2-(3-Acetyl-7-cyclopropyl-5-(2-methylpyrimidin-5-yl)-1H-indazol-1-yl)acetyl)-N-(6-bromo-5-fluoro-3-methylpyridin-2-yl)-2-azabicyclo[2.2.1]heptane-3-carboxamide]	< 1000 nM
COCCOC[C@@]12C[C@@H](C(=O)Nc3nc(Br)ccc3C)N(C(=O)Cn3nc(C(C)=O)c4cc(-c5cnc(CO)nc5)cc(C)c43)[C@@H]1C2 [Compound 108, (1R,3S,5S)-2-(2-(3-acetyl-5-(2-(hydroxymethyl)pyrimidin-5-yl)-7-methyl-1H-indazol-1-yl)acetyl)-N-(6-bromo-3-methylpyridin-2-yl)-5-((2-methoxyethoxy)methyl)-2-azabicyclo[3.1.0]hexane-3-carboxamide]	1000 to 10000 nM
CCC(Cc1ccccc1)NC(=O)[C@@H]1C[C@@]2(C)C[C@H]2N1C(=O)Cn1nc(C(C)=O)c2cc(-c3cnc(C)nc3)cc(C)c21 (stereo partly drawn) [Compound 173, (1R,3S,5R)-2-{2-[3-acetyl-7-methyl-5-(2-methylpyrimidin-5-yl)indazol-1-yl]acetyl}-5-methyl-N-(1-phenylbutan-2-yl)-2-azabicyclo[3.1.0]hexane-3-carboxamide]	< 1000 nM
CC(=O)c1nn(CC(=O)N2[C@H](C(=O)NCCC3CC3)C[C@@]3(C)C[C@@H]23)c2c(C)cc(-c3cnc(C)nc3)cc12 [Compound 105, (1R,3S,5R)-2-{2-[3-acetyl-7-methyl-5-(2-methylpyrimidin-5-yl)indazol-1-yl]acetyl}-N-(2-cyclopropylethyl)-5-methyl-2-azabicyclo[3.1.0]hexane-3-carboxamide]	< 1000 nM
CC(=O)c1nn(CC(=O)N2[C@H](C(=O)Nc3nc(Br)c(F)cc3C)C[C@@]3(C)C[C@@H]23)c2c(C)cc(-c3cnc(C(=O)O)nc3)cc12 [Compound 45, 5-(3-acetyl-1-(2-((1R,3S,5R)-3-((6-bromo-5-fluoro-3-methylpyridin-2-yl)carbamoyl)-5-methyl-2-azabicyclo[3.1.0]hexan-2-yl)-2-oxoethyl)-7-methyl-1H-indazol-5-yl)pyrimidine-2-carboxylic acid]	< 1000 nM

Further lines, results first:

IC50	SMILES
< 1000 nM	CC(=O)c1nn(CC(=O)N2[C@H](C(=O)Nc3nc(Br)ccc3C)C[C@@]3(C)C[C@@H]23)c2c(C)cc(-c3cnc(C(C)O)nc3)cc12 (stereo partly drawn) [Compound 95, (1R,3S,5R)-2-(2-(3-acetyl-5-(2-(1-hydroxyethyl)pyrimidin-5-yl)-7-methyl-1H-indazol-1-yl)acetyl)-N-(6-bromo-3-methylpyridin-2-yl)-5-methyl-2-azabicyclo[3.1.0]hexane-3-carboxamide]
< 1000 nM	CC(=O)c1nn(CC(=O)N2[C@H](C(=O)Nc3cncc(Br)n3)C[C@@]3(C)C[C@@H]23)c2c(C)cc(-c3cnc(C(=O)O)nc3)cc12 [Compound 43, 5-(3-acetyl-1-(2-((1R,3S,5R)-3-((6-bromopyrazin-2-yl)carbamoyl)-5-methyl-2-azabicyclo[3.1.0]hexan-2-yl)-2-oxoethyl)-7-methyl-1H-indazol-5-yl)pyrimidine-2-carboxylic acid]
< 1000 nM	CC(=O)c1nn(CC(=O)N2[C@H](C(=O)Nc3nc(Br)c(F)cc3C)C[C@@]3(C)C[C@@H]23)c2c(C)cc(-c3cnc(CO)cn3)cc12 [Compound 131, (1R,3S,5R)-2-(2-(3-acetyl-5-(5-(hydroxymethyl)pyrazin-2-yl)-7-methyl-1H-indazol-1-yl)acetyl)-N-(6-bromo-5-fluoro-3-methylpyridin-2-yl)-5-methyl-2-azabicyclo[3.1.0]hexane-3-carboxamide]
